Laboratory results from PubChem BioAssay (NCI).
Where “and” joins values, the source holds several entries; their conditions need not be identical. Identical values can stand only once.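 The compound was tested at five concentrations on cells cultured in 96-well plates, with a 48-hour exposure period. GI50: concentration for 50% inhibition of growth. TGI denotes the concentration required for complete inhibition of growth.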

Assays:
Test in all cases: NCI tumour cell line growth inhibition, 48 h
DLD-1 colon = system: DLD-1 colon
DMS 114 small cell lung = system: DMS 114 small cell lung
DMS 273 small cell lung = system: DMS 273 small cell lung
M19-MEL melanoma = system: M19-MEL melanoma
RXF-631 renal = system: RXF-631 renal
SNB-78 CNS = system: SNB-78 CNS
XF 498 CNS = system: XF 498 CNS
MDA-N = system: MDA-N
HOP-18 NSCLC = system: HOP-18 NSCLC
P388 leukemia = system: P388 leukemia
P388/ADR leukemia = system: P388/ADR leukemia
SN12K1 renal = system: SN12K1 renal

Compound	TGI (DLD-1 colon)	TGI (DMS 114 small cell lung)	TGI (DMS 273 small cell lung)	TGI (M19-MEL melanoma)	TGI (RXF-631 renal)	TGI (SNB-78 CNS)	TGI (XF 498 CNS)	TGI (MDA-N)	TGI (HOP-18 NSCLC)	further results
CCC1C(C)c2c([nH]c3ccccc23)C2C(=O)N(c3ccccc3)C(=O)C21 (stereo unspecified)	34.9 µM	29.7 µM	37.4 µM	29.6 µM	26.3 µM	67.6 µM	36 µM			
O=c1[nH]cc(CS(=O)(=O)Cc2c[nH]c(=O)[nH]c2=O)c(=O)[nH]1								> 100 µM		
CN(C)c1ccc(/C=C2\C[C@H]3[C@@H]4CC=C5C[C@@H](N6CCCC6)CC[C@]5(C)[C@H]4CC[C@]3(C)[C@H]2O)cc1								2.34 µM and 8.6 µM		GI50 (MDA-N): 2.87 µM
Cc1c[nH]c2c1C13CC1CN(C(=O)c1cc4cc(NC(=O)c5cc6ccccc6o5)ccc4[nH]1)C3=CC2=O (stereo unspecified)	34.6 nM and 1.69 µg/mL	< 0.001 µM		< 0.001 µM	0.0139 µM	32.1 nM and 0.0318 µg/mL			< 0.001 µM	GI50 (DLD-1 colon): > 1.17 ng/mL; GI50 (DMS 114 small cell lung): > 1.17 ng/mL; GI50 (DMS 273 small cell lung): > 1.17 ng/mL; GI50 (P388 leukemia): > 1.17 ng/mL; GI50 (P388/ADR leukemia): > 1.17 ng/mL; GI50 (SN12K1 renal): > 1.17 ng/mL; GI50 (SNB-78 CNS): > 1.17 ng/mL
S=c1nc[nH]c2c1ncn2Cc1ccco1								> 100 µM		
Cc1cccc(NC(=O)C(=O)C2C(=O)NC(=O)NC2=O)c1C	> 100 µM	> 100 µM	> 100 µM	> 100 µM		> 100 µM			> 100 µM	
C/C1=C\[C@H](C)C[C@H](C)OC(=O)C[C@H](c2ccc(O)cc2)NC(=O)[C@@H](Cc2c(Br)[nH]c3ccccc23)N(C)C(=O)[C@H](C)NC(=O)[C@@H](C)C1	2.39 µM	0.837 µM and 1.56 µM	0.83 µM	2.02 µM		0.795 µM and 0.163 µM	0.448 µM and 0.0585 µM	2.83 µM		GI50 (DLD-1 colon): 0.148 µM; GI50 (DMS 114 small cell lung): 0.0424 µM; GI50 (M19-MEL melanoma): 0.0414 µM; GI50 (RXF-631 renal): 0.047 µM; GI50 (SNB-78 CNS): 0.0339 µM; GI50 (XF 498 CNS): 0.0249 µM
Cc1ccc(S(=O)(=O)N(/N=C(\N)Oc2ccc(Cl)cc2)C(=N)Oc2ccc(Cl)cc2)cc1	> 100 µM	> 100 µM	> 100 µM	> 100 µM		> 100 µM	> 100 µM		> 100 µM	
COC(=O)c1c[nH]c(=O)[nH]c1=O								> 100 µM		
OCC(O)C(O)c1nn(-c2ccccc2)c2nc3cc(Cl)c(Cl)cc3nc12 (stereo unspecified)	> 100 µM	71.4 µM	56.6 µM	> 100 µM	91.5 µM	> 100 µM	> 100 µM		> 100 µM	
C(=N\Nc1nnc2c(n1)[nH]c1ccccc12)/c1cccnc1								> 100 µM		
COc1cc([C@@H]2c3cc4c(cc3[C@@H](NC(=O)c3ccc(N)cc3)C3COC(=O)[C@@H]32)OCO4)cc(OC)c1O (stereo partly specified)	35.4 µM	9.71 µM	16.3 µM	> 100 µM					> 100 µM	
O=[N+]([O-])c1cccc([N+](=O)[O-])c1S(=O)(=O)c1ccccc1								19.8 µM		
CC#C[C@@]1(O)CCCC[C@@H]1O		> 100 µM	> 100 µM	> 100 µM	> 100 µM	> 100 µM	> 100 µM		> 100 µM	
c1ccc2c(CNCCCCCCNCc3cccc4ccccc34)cccc2c1	13.8 µM	20.2 µM	26.6 µM	14.3 µM	9.46 µM	23.9 µM	7.26 µM		29.1 µM	
COc1ccc2cccc(C(=O)c3ccc(C)c4c3CCC4)c2c1	> 100 µM	> 100 µM	70 µM	> 100 µM	43.9 µM				> 100 µM	
Cc1cnc[nH]c1=O	> 100 µM	> 100 µM	> 100 µM	> 100 µM	> 100 µM	> 100 µM			> 100 µM	
O=C(CC(=O)N1N=C(c2ccccc2)C(N=Nc2ccc(C(=O)O)cc2)C1=O)Nc1ccc(F)cc1 (stereo unspecified)	> 100 µM	> 100 µM	78.7 µM	> 100 µM	> 100 µM	> 100 µM	93.4 µM			
CC(C)[C@@H]1C=C(c2ccccc2)c2ccccc2C1C(C#N)(C#N)C(C)C (stereo partly specified)	> 100 µM	> 100 µM	> 100 µM	> 100 µM		> 100 µM	> 100 µM		> 100 µM	
COc1ccccc1/C=C\c1cnnc2ccccc12								9.66 µM		
NCCCCCS(=O)(=O)O	> 100 µM	> 100 µM	> 100 µM	> 100 µM	> 100 µM	> 100 µM			> 100 µM	
COc1ccc(C2OC(=O)c3c2ccc2ccccc32)c(C)c1 (stereo unspecified)								4.34 µM		
Cc1ccc2nc3c(C)c(Cl)c(=O)cc-3sc2c1	> 100 µM	12.9 µM	> 91.3 µM	12.9 µM	91.3 µM	96.9 µM	32.5 µM	32.1 µM	75.8 µM	

Compound	TGI (DLD-1 colon)	TGI (DMS 114 small cell lung)	TGI (DMS 273 small cell lung)	TGI (M19-MEL melanoma)	TGI (RXF-631 renal)	TGI (SNB-78 CNS)	TGI (XF 498 CNS)	TGI (MDA-N)	TGI (HOP-18 NSCLC)	further results
Nc1nc2c(ncn2C2OC(CO)C(O)C2N)c(=O)[nH]1 (stereo unspecified)	> 100 µM	> 100 µM	> 100 µM	> 100 µM	> 100 µM	> 100 µM	> 100 µM			
Nc1[nH]c(=O)ncc1F								> 100 µM		
O=C(N/N=C(/c1nc2ccc(Cl)cc2[nH]c1=O)C(O)c1ccc(Cl)cc1Cl)c1ccncc1 (stereo unspecified)	> 100 µM	> 100 µM	> 100 µM	> 100 µM	> 100 µM	> 100 µM				
Cc1nc(C)c(C(=O)Nc2cccc3c2C(=O)NC3=O)cc1C(=O)Nc1cccc2c1C(=O)NC2=O	> 100 µM	> 100 µM	> 100 µM	> 100 µM		> 100 µM	> 100 µM		> 100 µM	
CCOC1OCCCC1Br (stereo unspecified)								> 100 µM		
COC(=O)C1=C(OC)c2cc3c(cc2C(c2cc(OC)c(OC)c(OC)c2)C1C(=O)OC)OCO3 (stereo unspecified)	> 100 µM	> 100 µM	> 100 µM	> 100 µM		> 100 µM	> 100 µM		> 100 µM	
O=C1C2c3[nH]c4ccccc4c3[C@@H]3CCCCCCCCCCC3C2C(=O)N1c1ccccc1 (stereo partly specified)	> 100 µM	37 µM	> 100 µM	57.4 µM	28 µM	24.7 µM			99.6 µM	
CCCCCCCCCCCC(=O)OCC1OC(n2cc(F)c(=O)[nH]c2=O)C(NC(=O)OCc2ccccc2)C(O)C1O (stereo unspecified)			36.2 µM	37.2 µM		87.7 µM				
COc1ccc(/C=C2\Cc3ccccc3C2=O)cc1OC	> 100 µM	> 100 µM		> 100 µM		> 100 µM	> 100 µM			
CCOC(=O)C1N(S(=O)(=O)c2ccc(C)cc2)CCC12c1ccccc1N(C(C)=O)C2C(/C=C/C(=O)OC)=C/C(=O)OC (stereo unspecified)	> 100 µM	> 100 µM	> 100 µM	> 100 µM		> 100 µM	> 100 µM			
N#Cc1cccc(NC(=O)c2ccc(C(=O)O)c(C(=O)c3ccc(C(=O)O)c(C(=O)Nc4cccc(C#N)c4)c3)c2)c1	> 100 µM	> 100 µM	> 100 µM	> 100 µM		> 100 µM	> 100 µM		> 100 µM	
O=C(c1cc(O)ccc1O)c1ccccc1C(Cl)(Cl)Cl		> 100 µM	> 100 µM	> 100 µM		> 100 µM	84.2 µM		> 100 µM	
Cn1cnc([N+](=O)[O-])c1Sc1ccccn1	> 100 µM	> 100 µM	> 100 µM	> 100 µM	> 100 µM	> 100 µM	> 100 µM		96.1 µM	
CC1=NNC(=NCCN(C)C)C/C1=C/c1ccccc1Cl	> 100 µM	> 100 µM	> 100 µM	> 100 µM	> 100 µM	> 100 µM	> 100 µM		> 100 µM	
CC[C@@]1(O)C(=O)NCc2c1cc1n(c2=O)Cc2cc3ccccc3nc2-1								> 100 µM		GI50 (MDA-N): 12.4 µM
COC(=O)/C=C/C(=O)C1C(C(=O)OC)C2(C(=O)OC)CCC1(C(=O)OC)N2 (stereo unspecified)	> 100 µM	> 100 µM		> 100 µM		> 100 µM			> 100 µM	
O=C(c1ccccc1)C1C(C(=O)c2ccccc2)N1Cc1ccccc1 (stereo unspecified)								37.4 µM		
C/C(=C\c1ccc(Cl)cc1)C(C)(C)C(=O)O								> 100 µM		
CN(C)C[C@H]1CC[C@@H](CN(C)C)C1=O	11.5 µM	17.5 µM	16.7 µM	17 µM		23.3 µM	15.1 µM	16.1 µM	14.8 µM	
O=C(O)c1c(O)c2cc(Br)ccc2oc1=O								> 100 µM		
Cc1cc(C)cc(-n2c3nc(=O)n(C)c(=O)c-3nc3ccccc32)c1		29.1 µM	37.7 µM	18.5 µM	80.3 µM	> 100 µM	81 µM		> 100 µM	
O=P(Oc1ccc(Cl)cc1)(Oc1ccc(Cl)cc1)N1CC1								> 10 µM		
